What follows are molecules tested against T1, human MCH-1R (Homo sapiens, UniProt Q99705) (assay: MCH binding inhibition test). Settings: membrane samples from MCH-1R expressing CHO-K1 cells, 50 pM [125I]MCH, 25° C., one hour; read-out: IC50 (nM); 50% inhibition concentration (IC50 value) for specific [125I]MCH binding.
T1 construct: expressed in transfected cells; host or cells: CHO-K1 (American Type Culture Collection), plasmid vector pEF/myc/cyto
Text: Pharmacological test example: MCH binding inhibition test A cDNA sequence encoding human MCH-1R [FEBS Letters, Vol. 398, 253 (1996); Biochimica et Biophisica Acta, Vol. 1401, 216 (1998)] was cloned to a plasmid vector pEF/myc/cyto (manufactured by Invitrogen). The obtained expression vector was transfected to a host cell CHO-K1 (American Type Culture Collection) using Lipofectamine Plus reagent (manufactured by Life Technology) to provide MCH-1R expression cells.
Membrane samples prepared from the MCH-1R expression cells were incubated with a test compound and 50 pM [^125I]MCH (manufactured by NEN) in an assay buffer (50 mM Tris buffer containing 10 mM magnesium chloride, 2 mM ethylenediamine tetraacetate, 0.01% bacitracin, and 0.2% bovine serum albumin; pH 7.4) at 25° C. for one hour, followed by filtration through a glass filter GF/C (manufactured by Wattman). The glass filter was washed with 50 mM Tris buffer (pH 7.4) containing 10 mM magnesium chloride, 2 mM ethylenediamine tetraacetate, and 0.04% Tween-20, and then the radioactivity on the glass filter was determined Non-specific binding was measured in the presence of 1 μM human MCH, and, with respect to each test compound, 50% inhibition concentration (IC50 value) for specific [^125I]MCH binding was determined.

T1 sequence (Q99705 whole entry): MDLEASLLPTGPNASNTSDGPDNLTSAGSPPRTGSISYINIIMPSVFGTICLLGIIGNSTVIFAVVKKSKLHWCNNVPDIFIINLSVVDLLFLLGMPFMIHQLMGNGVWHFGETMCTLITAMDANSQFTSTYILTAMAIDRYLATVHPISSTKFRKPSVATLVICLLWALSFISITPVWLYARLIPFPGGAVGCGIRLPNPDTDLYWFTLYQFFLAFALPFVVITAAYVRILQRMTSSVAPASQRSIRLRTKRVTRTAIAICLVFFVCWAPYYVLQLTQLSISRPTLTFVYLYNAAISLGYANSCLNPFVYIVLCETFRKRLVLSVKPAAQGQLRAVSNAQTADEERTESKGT

| SMILES | IC50 [nM] |
| --- | --- |
| CN(C(=O)C(C)(C)O)C(c1ccc(F)c(F)c1)c1ccc(CN2CCC(c3ccc(F)nc3)CC2)cn1 (single isomer, unassigned) [Example 1-37, (R)— or (S)—N-[(3,4-difluorophenyl)(5-{[4-(6-fluoropyridin-3-yl)piperidin-1-yl]methyl}pyridin-2-yl)methyl]-2-hydroxy-N,2-dimethylpropanamide] | 17 |
| CC(NC(=O)C(F)F)(c1ccc(F)c(F)c1)c1ccc(CN2CCC(c3ccc(F)nc3)CC2)cn1 (single isomer, unassigned) [Example 1-58, (R)— or (S)—N-[1-(3,4-difluorophenyl)-1-(5-{[4-(6-fluoropyridin-3-yl)piperidin-1-yl]methyl}pyridin-2-yl)ethyl]-2,2-difluoroacetamide] | 1.7 |
| O=C1C(F)CCN1C(c1ccc(CN2CCC3(CC2)OCc2ccncc23)cc1)c1ccc(F)c(F)c1 (single isomer, unassigned) [Example 2-5, (3R)— or (3S)—[(R)— or (S)-1-{(3,4-difluorophenyl)[4-(1H,1′H-spiro[furo[3,4-c]pyridine-3,4′-piperidin]-1′-ylmethyl)phenyl]methyl}]-3-fluoropyrrolidin-2-one] | 0.18 |
| Cn1cc2c(cc1=O)C1(CCN(Cc3ccc(C(c4ccc(F)c(F)c4)N4CCCS4(=O)=O)cc3)CC1)OC2 (centres unmarked) [Example 1-20, 1′-{4-[(3,4-difluorophenyl)(1,1-dioxideisothiazolidin-2-yl)methyl]benzyl}-5-methyl-3,5-dihydro-6H-spiro[furo[3,4-c]pyridine-1,4′-piperidin]-6-one] | 2.9 |
| O=C1CCCN1C(c1ccc(CN2CCC3(CC2)OCc2ccncc23)cc1)c1ccc(F)c(F)c1 (centres unmarked) [Example 2-1, 1-{(3,4-difluorophenyl)[4-(1H,1′H-spiro[furo[3,4-c]pyridine-3,4′-piperidin]-1′-ylmethyl)phenyl]methyl}pyrrolidin-2-one] | 0.26 |
